Literature values as cited in patent US10653634B1, “Polymeric nanoparticulate formulation to enhance the oral bioavailability of dapoxetine” (King Abdulaziz University, priority 2019, dated 2020).
In brackets after ≈: the same amount, converted by molar mass.

Assays:
[1] = not given; remark: listed apart in the source

CN(C)[C@@H](CCOc1cccc2ccccc12)c1ccccc1 [DPX, (1S)—N,N-dimethyl-3-naphthalen-1-yloxy-1-phenylpropan-1-amine]
bioavailability after oral administration (mean): 42%
bioavailability after oral administration (variability): 15-76%
time to peak plasma concentration after oral administration: 60 to 80 min
pKa [1]: 8.6
aqueous solubility ([1]; protonated DPX): 68 mg/mL (≈ 223 mM)
